Laboratory results as given in the supplement of paper PMC11451515.

Tested on: P12-Ichikawa
Assay: cell viability relative to DMSO control; higher = less cytotoxic
Conditions: 48 h
Method in brief: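 Viability is a per-plate percentage relative to DMSO wells, with cell-free wells as background. CellTiter-Glo One luminescence was read after 48 h at 37°C on 1536-well plates (5 μl) of NOMO1 or SEM (500 cells/well) or P12-Ichikawa (1000 cells/well) leukemia cells. The cells had been adapted for at least four passages in each medium and pin-dosed with library compounds in DMSO from 47 μM to 0.79 nM in 11 threefold steps.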

[1] = HPLM + 10% dialyzed FBS, 0.000781 µM
[2] = HPLM + 10% dialyzed FBS, 0.00234 µM
[3] = HPLM + 10% dialyzed FBS, 0.00702 µM
[4] = HPLM + 10% dialyzed FBS, 0.0211 µM
[5] = HPLM + 10% dialyzed FBS, 0.0632 µM
[6] = HPLM + 10% dialyzed FBS, 0.19 µM
[7] = HPLM + 10% dialyzed FBS, 0.569 µM
[8] = HPLM + 10% dialyzed FBS, 1.71 µM
[9] = HPLM + 10% dialyzed FBS, 5.12 µM
[10] = HPLM + 10% dialyzed FBS, 15.4 µM
[11] = HPLM + 10% dialyzed FBS, 46.1 µM
[12] = RPMI 5 mM glucose + 10% FBS, 0.000781 µM
[13] = RPMI 5 mM glucose + 10% FBS, 0.00234 µM
[14] = RPMI 5 mM glucose + 10% FBS, 0.00702 µM
[15] = RPMI 5 mM glucose + 10% FBS, 0.0211 µM
[16] = RPMI 5 mM glucose + 10% FBS, 0.0632 µM
[17] = RPMI 5 mM glucose + 10% FBS, 0.19 µM
[18] = RPMI 5 mM glucose + 10% FBS, 0.569 µM
[19] = RPMI 5 mM glucose + 10% FBS, 1.71 µM
[20] = RPMI 5 mM glucose + 10% FBS, 5.12 µM
[21] = RPMI 5 mM glucose + 10% FBS, 15.4 µM
[22] = RPMI 5 mM glucose + 10% FBS, 46.1 µM
[23] = RPMI 5 mM glucose + 10% dialyzed FBS, 0.000781 µM
[24] = RPMI 5 mM glucose + 10% dialyzed FBS, 0.00234 µM
[25] = RPMI 5 mM glucose + 10% dialyzed FBS, 0.00702 µM
[26] = RPMI 5 mM glucose + 10% dialyzed FBS, 0.0211 µM
[27] = RPMI 5 mM glucose + 10% dialyzed FBS, 0.0632 µM
[28] = RPMI 5 mM glucose + 10% dialyzed FBS, 0.19 µM
[29] = RPMI 5 mM glucose + 10% dialyzed FBS, 0.569 µM
[30] = RPMI 5 mM glucose + 10% dialyzed FBS, 1.71 µM
[31] = RPMI 5 mM glucose + 10% dialyzed FBS, 5.12 µM
[32] = RPMI 5 mM glucose + 10% dialyzed FBS, 15.4 µM
[33] = RPMI 5 mM glucose + 10% dialyzed FBS, 46.1 µM

SMILES | cell viability [1] [%] | cell viability [2] [%] | cell viability [3] [%] | cell viability [4] [%] | cell viability [5] [%] | cell viability [6] [%] | cell viability [7] [%] | cell viability [8] [%] | cell viability [9] [%] | cell viability [10] [%] | cell viability [11] [%] | cell viability [12] [%] | cell viability [13] [%] | cell viability [14] [%] | cell viability [15] [%] | cell viability [16] [%] | cell viability [17] [%] | cell viability [18] [%] | cell viability [19] [%] | cell viability [20] [%] | cell viability [21] [%] | cell viability [22] [%] | cell viability [23] [%] | cell viability [24] [%] | cell viability [25] [%] | cell viability [26] [%] | cell viability [27] [%] | cell viability [28] [%] | cell viability [29] [%] | cell viability [30] [%] | cell viability [31] [%] | cell viability [32] [%] | cell viability [33] [%]
CN(CC(=O)N(Cc1ccc(C2CCCCC2)cc1)c1ccc(C(=O)O)c(O)c1)[S+](=O)([O-])c1c(F)c(F)c(F)c(F)c1F | 93 | 100 | 94.2 | 102 | 106 | 107 | 107 | 101 | 91.7 | 75.3 | 5.29 | 93 | 100 | 99.5 | 101 | 99.7 | 103 | 100 | 105 | 101 | 92.5 | 51.3 | 87.8 | 90.1 | 91.4 | 93.9 | 96.6 | 87.1 | 94.3 | 96 | 97.9 | 79.6 | 29.6
CCCCN1CCC(CNC(=O)c2c3n(c4ccccc24)CCCO3)CC1 | 100 | 104 | 109 | 112 | 115 | 109 | 116 | 110 | 107 | 95 | 68.9 | 107 | 105 | 109 | 112 | 118 | 101 | 112 | 114 | 112 | 90.1 | 68 | 92.8 | 107 | 106 | 98.5 | 113 | 105 | 112 | 112 | 109 | 94.7 | 78.5
CCCCCN(C)CCC(O)(P(=O)([O-])O)P(=O)(O)O | 88 | 88.1 | 87.1 | 96 | 95 | 97.6 | 99.5 | 92.9 | 93.4 | 99.2 | 92.4 | 81.4 | 86.5 | 91.3 | 95.6 | 85.8 | 86.6 | 94 | 89.7 | 91.3 | 92.6 | 83.4 | 79 | 85.2 | 81.1 | 95.3 | 88.9 | 84.5 | 88.9 | 79.4 | 86.1 | 87.8 | 86.9
CC(O)(C[S+](=O)([O-])c1ccc(F)cc1)C(=O)Nc1ccc(C#N)c(C(F)(F)F)c1 (configuration not stated) | 94.8 | 85.9 | 97.2 | 96.8 | 93.7 | 100 | 102 | 101 | 95.6 | 102 | 69.9 | 84.6 | 92.9 | 92.3 | 93.9 | 94.5 | 91.1 | 93.2 | 98.9 | 90.3 | 88.9 | 52.7 | 78.3 | 85.5 | 90.9 | 90.3 | 95.9 | 86.2 | 98.2 | 96.2 | 90.4 | 74 | 49.4
C[C@H](NC(=O)[C@@H](O)c1cc(F)cc(F)c1)C(=O)N[C@@H]1C(=O)N(C)c2ccccc2-c2ccccc21 | 118 | 116 | 111 | 119 | 106 | 108 | 105 | 101 | 96.8 | 102 | 90.1 | 114 | 116 | 119 | 115 | 114 | 111 | 102 | 90.5 | 99.8 | 101 | 94.3 | 114 | 110 | 109 | 109 | 106 | 101 | 99.6 | 106 | 95.8 | 94.3 | 78.5
c1cc2c(cc1[C@H]1OC[C@H]3[C@@H]1CO[C@@H]3c1ccc3c(c1)OCO3)OCO2 | 122 | 120 | 118 | 124 | 122 | 129 | 133 | 122 | 119 | 128 | 122 |  |  |  |  |  |  |  |  |  |  |  |  |  |  |  |  |  |  |  |  |  | 
CCOc1cc(C(=O)Nc2ccc(Cl)c(-c3nc4ccccc4[nH]3)c2)cc(OCC)c1OCC | 74.3 | 82.5 | 89 | 91 | 91.9 | 92.9 | 98.9 | 96.1 | 92 | 94.1 | 84.6 | 81.6 | 89.8 | 86.7 | 88.4 | 95.8 | 92.9 | 86.7 | 86.5 | 86.6 | 95.4 | 60.8 | 78.9 | 76.7 | 84 | 86.5 | 85.8 | 81.2 | 88.3 | 82.8 | 79.8 | 81.1 | 53.6
OC(=O)CNC(=O)\C1=C(/O)C2=CC=CC=C2N(CC3=CC=CC=C3)C1=O | 97.6 | 113 | 102 | 104 | 104 | 100 | 105 | 101 | 101 | 103 | 39.4 | 98.7 | 108 | 113 | 114 | 108 | 101 | 102 | 107 | 93 | 97.2 | 92.8 | 90.4 | 97.9 | 104 | 95.1 | 93.1 | 94.4 | 94 | 93.1 | 95.8 | 94.5 | 5.26
